# Results published in patent US10046001B2, “Compositions and methods for reducing intraocular pressure” (UNIVERSITY OF MIAMI, priority 2013, dated 2018).
# Assays:
# [1] = tested on: normotensive cynomolgus monkeys; assay: IOP and slit lamp examination in normotensive cynomolgus monkeys after topical lipid; assay type: in vivo
# Procedure: Lipids were topically administered in 1 μl volume around ˜1 pm in the afternoon. The right eye was treated with vehicle alone, and the left eye was treated with lipid. The cynomolgus monkeys (n=4) were treated with […] lipid (except C17S1P which was 50 nM) for 5 days. Monkeys were subjected to slit lamp examination and IOP measurement prior to and after treatment. The IOP measured 3-6 hours post-treatment on the fifth day of treatment is depicted as solid bars. The hollow bars are control (vehicle only (5% DMSO)).
# Experimental design: The IOP-reducing activity of six lipids was tested in the eyes of cynomolgus monkeys (n=4 animals for each lipid). Baseline slit lamp biomicroscopic examination (SLE) and IOP for each group of animals was measured prior to topical application of lipids. The SLE and IOP were then measured at 3-6 hours posttreatment. One eye of each monkey received topical application with the lipid suspended in vehicle (1% dimethylsulfoxide (DMSO)), and the contralateral eye was treated with vehicle only. All topical applications contained 10 picomole of lipid (except C17S1P, which was 50 nM). […] The IOP was measured using a minified Goldmann applanation tonometer.
# DBA/2J mice = assay: IOP lowering after topical application in DBA/2J mice; assay type: in vivo, mouse; details: DBA/2J mice, topical 10 pmole in 5% DMSO, once daily
# Procedure: The right eye was treated with vehicle alone and left eye treated with lipid. Control had both eyes treated with vehicle. A. In DBA/2J mice the indicated lipid in vehicle or control (vehicle only) were administered one daily at around 7.5 months of age in mice which were noted to have a IOP≥18 mm of Hg (20% increase from an average baseline of 15 mm of Hg was employed as treatment point). The average IOP recordings are shown for indicated lipids. B. A 10 picomole each of six PC (13:0/13:0; PE (18:0/18:0), Lyso-PS 18:0, PS 18:1, Sphinganine and C17S1P) were combined and applied as a topical dose once daily for up to 7 days on DBA/2J mouse eyes in 5% DMSO (vehicle). […] Transgenic myocillin mice [Tg-MYOC(Y437H)] subjected to a topical dose of indicated lipids as noted above (FIG. 5C). The IOP lowering compared to control was noted on day 4 and 6 as shown.
# Intraocular pressure lowering in mouse models. The endogenous lipids lowered IOP in a DBA/2J mouse model of glaucoma (FIG. 5A). DBA/2J is the only known mouse animal where elevation of IOP occur spontaneously. Although this mouse also suffers from pigmentary dispersion, however, elevation of IOP appears not to correlate with […]. The lipids as indicated were applied as a topical dose (10 pmole in 5% DMSO as vehicle). The 5% DMSO only vehicle served as a control (FIG. 5A). […] A 10 picomole each of six PC (13:0/13:0; PE (18:0/18:0), Lyso-PS 18:0, PS 18:1, Sphinganine, and C17S1P) were combined and applied as a topical dose once daily for up to 7 days on DBA/2J mouse eyes in 5% DMSO (vehicle) (in other words, 10 picomoles of each PC was included). […] In addition to the DBA/2J model described here, these endogenous lipids lowered IOP in cochlin and connective tissue growth factor (CTGF) over-expression models. […] Thus the endogenous lipids assessed here lowered IOP in vastly different DBA/2J and MYOC(Y437H) mouse models as well as in cochlin and CTGF overexpression models covering a broad swath of four rodent glaucoma models that encompass induced as well as spontaneous IOP elevation.
# Topical application of lipids and measurement of IOP: The lipids were topically applied as 1 μl drops with 10 pmole lipids. Pressure was measured with a tonolab (Colonial
# Medical Supplies, N.H.) or with an assembled cannulation device, used in our laboratory. An initial assessment had utilized 10% DMSO as vehicle. However, all data reported here utilized 5% DMSO.
# [2] = tested on: assembled layers of primary TM cells; assay: fluorescein transport across assembled layers of primary TM cells in Using type chamber; assay type: cell-based, human; details: 10 pmole lipid, transport at 15 seconds
# Source text: A pentalayer of cells were casted on a PVDF filter of 0.45 μm pore size with second to fourth layer topped with rat collagen. Control (without lipid treatment) or with 10 pmole of indicated lipid treated cells were used for these measurements. The transport of flourescein at 15 seconds from the opposite end after introduction of sample at one was estimated. Mean and standard deviation from three independent experiments have been presented. The relative transport has been divided into two zones (marked in yellow), that when the transport is above 0.48 but less than 0.62=1; and above 0.62=2 as indicated.
# The transport of fluorescein across cell assembled layered TM cells was determined in an Using type chamber (FIG. 4). The five layers of primary TM cells with collagen matrix in between layers after the first layer were laid on a sterile PVDF membrane (0.45 μm pores). The fluorescein was introduced from one side of the port (the cellular side) and was sampled from another side (the membrane side) within 15 seconds of introduction. Differences in transport between the cell only control and cell treated with lipids for 1-3 hours prior to forming multi-layers (FIG. 4) was observed. The fluorescein transport was quantized and divided into two categories (marked with yellow zones) as 1 and 2 (FIG. 4).
# Using type chamber experiments: An Using type chamber (cat #USS1L, World Precision Instrument, Inc.) was used to measure fluorescein flow (sodium fluorescein dye) across the PVDF membrane (cat #75696E Pall Life Sciences, Pensacola Fla.). Trabecular meshwork cells were cultured as described above on the PVDF membrane. Before plating the cells a layer of collagen matrix (Rat Tail Collagen, cat #BD 354249) was formed on the membrane to facilitate the adherence of TM cells to the membrane. The cells were allowed to form a confluent monolayer over a period of 16-24 hours and then another layer of cells was plated on this monolayer. This process was repeated to ultimately achieve a confluent tri-layer of cells. The cells were transfected with DNA of interest [TREK-1+cochlin, TREK-1 and RPE65, TREK-1, transfection agent (Lipofectamine 2000) (Invitrogen)] or left untransfected. 24-36 hours post transfection the membranes were placed between the hemi-chambers of the apparatus connected to a peristaltic pump creating flow across the membrane bathing in 1× DPBS. To measure the flow across the membrane, sodium flourescein dye was used (1:100 dilution of 1 mg/ml). The dye was introduced in one hemi-chamber and equal amounts (100 μl) were aspirated from the other hemi-chamber at 5 minutes post-injection. The fluorescein intensity was measured using the spectrophotometer.
smiles,measurement,setting,value
CCCCCCCCCCCCCC[C@@H](O)[C@@H](N)COP(=O)(O)O [C17 Sphinganine-1-phosphate],IOP reduction,"[1]; topical 10 picomole (C17S1P 50 nM), 5 days, IOP 3-6 hours post-treatment",reduced IOP significantly
same,adverse side effects or toxicity,"[1]; topical, slit lamp examination",without additional adverse side effects or toxicity
same,lowering of IOP,DBA/2J mice,lowering of IOP
same,transport of fluorescein in assembled layers of primary TM cells,[2],showed an effect
CCCCCCCC/C=C\CCCCCCCC(=O)N[C@@H](CO)[C@H](O)CCCCCCCCCCCCCCC [Cer(d18:0/18:1(9Z))],lowering of IOP,DBA/2J mice,lowering of IOP
same,transport of fluorescein in assembled layers of primary TM cells,[2],showed an effect
CCCCCCCC/C=C\CCCCCCCCCCCCCCCC(=O)N[C@@H](CO)[C@H](O)/C=C/CCCCCCCCCCCCC [Cer(d18:1/26:1(17Z))],lowering of IOP,DBA/2J mice,lowering of IOP
same,transport of fluorescein in assembled layers of primary TM cells,[2],showed an effect
CCCC/C=C\CCCCCCCC(=O)O[C@H](COC(=O)CCCCCCCCCCC)COP(=O)([O-])OCC[N+](C)(C)C [PC(12:0/14:1(9Z))],lowering of IOP,DBA/2J mice,not
same,transport of fluorescein in assembled layers of primary TM cells,[2],lack of any effect
"CCCCCCCCCCCCC(=O)OC[C@H](COP(=O)([O-])OCC[N+](C)(C)C)OC(=O)CCCCCCCCCCCC [PC(13:0/13:0), 1,2-ditridecanoyl-sn-glycero-3-phosphocholine, reference compound]",lowering of IOP,DBA/2J mice,not
same,transport of fluorescein in assembled layers of primary TM cells,[2],lack of any effect
CCCCCCCCCCCCCCCCCC(=O)OC[C@H](COP(=O)(O)OCCN)OC(=O)CCCCCCCCCCCCCCCCC [PE(18:0/18:0)],lowering of IOP,DBA/2J mice,lowering of IOP
same,transport of fluorescein in assembled layers of primary TM cells,[2],showed an effect
"CCCC/C=C\C/C=C\CCCCCCCC(=O)O[C@H](COC(=O)CCCCCCCCCCC)COP(=O)(O)OC1C(O)C(O)C(O)[C@@H](O)C1O (some centres unmarked) [PI(12:0/17:2)9Z,12Z))]",lowering of IOP,DBA/2J mice,lowering of IOP
same,transport of fluorescein in assembled layers of primary TM cells,[2],showed an effect
"CCCCC/C=C\C/C=C\C/C=C\C/C=C\CCCC(=O)O[C@H](COC(=O)CCCCCCCCCCCCCCCCC)COP(=O)(O)OC1[C@H](O)[C@H](O)C(O)[C@H](O)[C@H]1O (some centres unmarked) [PI(18:0/20:4)5Z,8Z,11Z,14Z))]",lowering of IOP,DBA/2J mice,lowering of IOP
same,transport of fluorescein in assembled layers of primary TM cells,[2],showed an effect
CCCCCCCCCCCCCC(=O)OC[C@@H](O)COP(=O)(O)OC[C@H](N)C(=O)O [PS(14:0/0:0)],lowering of IOP,DBA/2J mice,lowering of IOP
same,transport of fluorescein in assembled layers of primary TM cells,[2],showed an effect
CCCCCCCCCCCCCCCCCC(=O)OC[C@@H](O)COP(=O)(O)OC[C@H](N)C(=O)O [PS(18:0/0:0)],lowering of IOP,DBA/2J mice,lowering of IOP
same,transport of fluorescein in assembled layers of primary TM cells,[2],showed an effect
CCCCCCCCCCC/C=C/[C@@H](O)[C@H](COP(=O)([O-])OCC[N+](C)(C)C)NC(=O)CCCCCCCCCCCCCCCCCCCCCCCC [SM(d16:1/25:0)],lowering of IOP,DBA/2J mice,lowering of IOP
same,transport of fluorescein in assembled layers of primary TM cells,[2],showed an effect
CCCCCCCCCCCCCCC[C@@H](O)[C@@H](N)CO [Sphinganine],lowering of IOP,DBA/2J mice,lowering of IOP
same,transport of fluorescein in assembled layers of primary TM cells,[2],showed an effect
